Activity calls are given as the source filed them.

The values below come from ChEMBL document CHEMBL1201862, “PubChem BioAssay data set” (2004).

The target in data set [1] is Tyrosine-protein kinase Fyn (Homo sapiens, UniProt P06241). Format: functional.
The target in data set [2] is Tyrosine-protein kinase Lck (Homo sapiens, UniProt P06239). Format: functional.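 Further: lck was assayed as one member of a kinase panel.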
In data set [3] the target is High affinity nerve growth factor receptor (Homo sapiens, UniProt P04629). Format: functional.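 Further: NTRK1 tested as one member of a kinome-wide profiling panel.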
Data set [4] deals with Hepatocyte growth factor receptor (Homo sapiens, UniProt P08581). Format: functional.
The target in data set [5] is ALK tyrosine kinase receptor (Homo sapiens, UniProt Q9UM73). Format: functional.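 Further: ALK tested as one member of a kinase panel screen.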
For data set [6], the target named is Rho-associated protein kinase 1 (Homo sapiens, UniProt Q13464). Format: functional.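 Further: measured within a broad kinome-wide panel profiling many kinases.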
The target in data set [7] is Serine/threonine-protein kinase TAO1 (Homo sapiens, UniProt Q7L7X3). Format: functional.
Data set [8] concerns the target Dual specificity protein kinase CLK4 (Homo sapiens, UniProt Q9HAZ1). Format: functional.
The target in data set [9] is Calcium/calmodulin-dependent protein kinase type II subunit alpha (Homo sapiens, UniProt Q9UQM7). Kind of data set: Navigating the Kinome. Panel member name: CAMK2A. Format: functional.
The target in data set [10] is Cyclin-dependent kinase 8 (Homo sapiens, UniProt P49336). Kind of data set: Navigating the Kinome. Panel member name: CDK8. Format: functional.
The target of data set [11] is Aurora kinase B (Homo sapiens, UniProt Q96GD4). Format: functional.
Data set [12] has as its target BDNF/NT-3 growth factors receptor (Homo sapiens, UniProt Q16620). Format: functional.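 Further: NTRK2 measured as one member of a broad kinome-wide kinase profiling panel.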
The target of data set [13] is Phosphorylase b kinase gamma catalytic chain, liver/testis isoform (Homo sapiens, UniProt P15735). Format: functional.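 Further: PHKG2 measured as one member of a kinome-wide kinase panel.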
Data set [14] deals with Serine/threonine-protein kinase pim-3 (Homo sapiens, UniProt Q86V86). Format: functional.
Data set [15] addresses Cytochrome P450 2C19 (Homo sapiens, UniProt P33261). In words: Cytochrome panel assay with activity outcomes. Panel member name: p450-cyp2c19 Compounds with AC50 equal or less than 10 uM are considered active. As to conditions: read-out: AC50. Format: functional.
Data set [16] has as its target Cytochrome P450 2C9 (Homo sapiens, UniProt P11712).
Data set [17] deals with DNA dC->dU-editing enzyme APOBEC-3A (Homo sapiens, UniProt P31941). In words: SAR analysis of small molecule inhibitors of APOBEC3A DNA Deaminase via a fluorescence-based single-stranded DNA deaminase assay. Format: functional. As to conditions: read-out: IC50_Mean.
Data set [18] deals with DNA dC->dU-editing enzyme APOBEC-3G (Homo sapiens, UniProt Q9HC16). In words: inhibition of APOBEC3G ssDNA deamination – biochemical, fluorescence, single-stranded DNA substrate, SAR follow-up (AID 602136). Format: functional. As to conditions: read-out: IC50_Mean.
Data set [19] concerns the target Sphingosine 1-phosphate receptor 4 (Homo sapiens, UniProt O95977). Kind of data set: Late-stage fluorescence-based dose-response cell-based counterscreen assay to identify agonists of the Sphingosine 1-Phosphate Receptor 3 (S1P3): Sphingosine 1-Phosphate Receptor 4 (S1P4) agonist assay. Format: functional.
Data set [20] addresses Sphingosine 1-phosphate receptor 2 (Homo sapiens, UniProt O95136). In words: Late-stage fluorescence-based dose-response cell-based counterscreen assay to identify agonists of the Sphingosine 1-Phosphate Receptor 3 (S1P3): Sphingosine 1-Phosphate Receptor 2 (S1P2) agonist assay. Format: functional.

Sequence of BDNF/NT-3 growth factors receptor (Q16620 whole entry, canonical isoform): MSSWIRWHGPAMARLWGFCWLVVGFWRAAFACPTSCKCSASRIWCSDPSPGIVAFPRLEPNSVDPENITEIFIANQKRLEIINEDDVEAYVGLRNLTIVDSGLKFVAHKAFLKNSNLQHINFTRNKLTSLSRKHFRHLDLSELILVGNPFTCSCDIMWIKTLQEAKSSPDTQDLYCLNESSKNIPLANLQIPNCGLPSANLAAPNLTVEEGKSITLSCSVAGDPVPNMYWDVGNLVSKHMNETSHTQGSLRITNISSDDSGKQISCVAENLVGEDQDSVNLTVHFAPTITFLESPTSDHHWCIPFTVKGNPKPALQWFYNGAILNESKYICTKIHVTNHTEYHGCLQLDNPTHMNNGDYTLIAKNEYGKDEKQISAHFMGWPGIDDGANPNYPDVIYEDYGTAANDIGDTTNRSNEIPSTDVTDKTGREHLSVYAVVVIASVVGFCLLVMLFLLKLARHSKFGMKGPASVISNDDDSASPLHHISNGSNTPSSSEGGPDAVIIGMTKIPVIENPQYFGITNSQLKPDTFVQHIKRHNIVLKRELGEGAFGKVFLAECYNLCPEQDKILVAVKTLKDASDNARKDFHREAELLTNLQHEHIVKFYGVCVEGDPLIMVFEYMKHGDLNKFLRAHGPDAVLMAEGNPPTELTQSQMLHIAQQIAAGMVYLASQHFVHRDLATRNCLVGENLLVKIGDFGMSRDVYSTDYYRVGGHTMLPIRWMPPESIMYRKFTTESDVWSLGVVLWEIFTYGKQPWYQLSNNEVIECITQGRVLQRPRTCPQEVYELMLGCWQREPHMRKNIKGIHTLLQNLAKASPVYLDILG
Sequence of Sphingosine 1-phosphate receptor 4 (O95977 whole entry): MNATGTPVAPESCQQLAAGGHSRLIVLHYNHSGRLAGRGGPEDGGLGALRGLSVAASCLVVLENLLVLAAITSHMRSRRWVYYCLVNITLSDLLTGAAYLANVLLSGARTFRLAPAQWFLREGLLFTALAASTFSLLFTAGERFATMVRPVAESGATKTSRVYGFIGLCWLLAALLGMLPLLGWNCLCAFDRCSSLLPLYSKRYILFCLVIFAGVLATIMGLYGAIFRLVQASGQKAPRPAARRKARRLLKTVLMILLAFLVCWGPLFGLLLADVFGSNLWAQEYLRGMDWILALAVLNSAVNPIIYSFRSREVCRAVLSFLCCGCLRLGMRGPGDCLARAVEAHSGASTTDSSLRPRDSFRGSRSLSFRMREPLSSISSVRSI
Sequence of Phosphorylase b kinase gamma catalytic chain, liver/testis isoform (P15735 whole entry, canonical isoform): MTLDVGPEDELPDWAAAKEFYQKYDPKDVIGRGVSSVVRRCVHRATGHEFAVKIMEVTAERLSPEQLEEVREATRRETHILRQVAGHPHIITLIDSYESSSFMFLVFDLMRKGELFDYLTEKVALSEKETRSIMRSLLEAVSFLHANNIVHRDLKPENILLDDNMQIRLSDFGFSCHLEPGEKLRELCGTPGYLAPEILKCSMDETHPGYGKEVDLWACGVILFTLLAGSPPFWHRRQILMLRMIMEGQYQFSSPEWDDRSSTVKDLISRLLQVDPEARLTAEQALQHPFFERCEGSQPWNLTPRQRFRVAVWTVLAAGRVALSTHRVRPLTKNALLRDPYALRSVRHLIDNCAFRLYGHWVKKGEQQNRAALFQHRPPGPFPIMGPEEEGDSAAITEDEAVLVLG
Sequence of Tyrosine-protein kinase Fyn (P06241 whole entry): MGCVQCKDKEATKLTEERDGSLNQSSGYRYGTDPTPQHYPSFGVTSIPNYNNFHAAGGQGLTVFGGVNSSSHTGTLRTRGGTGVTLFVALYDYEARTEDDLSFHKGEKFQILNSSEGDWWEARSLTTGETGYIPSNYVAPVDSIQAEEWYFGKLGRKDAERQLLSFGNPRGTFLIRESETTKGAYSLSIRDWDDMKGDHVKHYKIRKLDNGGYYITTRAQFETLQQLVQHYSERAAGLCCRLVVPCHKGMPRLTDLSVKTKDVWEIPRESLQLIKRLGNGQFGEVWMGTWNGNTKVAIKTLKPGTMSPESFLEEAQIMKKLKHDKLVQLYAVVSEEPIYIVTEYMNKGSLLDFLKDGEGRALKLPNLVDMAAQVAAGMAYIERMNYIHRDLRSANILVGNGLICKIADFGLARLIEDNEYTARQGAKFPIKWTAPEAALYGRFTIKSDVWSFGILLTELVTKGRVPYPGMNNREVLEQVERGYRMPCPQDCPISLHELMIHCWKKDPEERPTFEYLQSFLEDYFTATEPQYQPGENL
Sequence of ALK tyrosine kinase receptor (Q9UM73 whole entry): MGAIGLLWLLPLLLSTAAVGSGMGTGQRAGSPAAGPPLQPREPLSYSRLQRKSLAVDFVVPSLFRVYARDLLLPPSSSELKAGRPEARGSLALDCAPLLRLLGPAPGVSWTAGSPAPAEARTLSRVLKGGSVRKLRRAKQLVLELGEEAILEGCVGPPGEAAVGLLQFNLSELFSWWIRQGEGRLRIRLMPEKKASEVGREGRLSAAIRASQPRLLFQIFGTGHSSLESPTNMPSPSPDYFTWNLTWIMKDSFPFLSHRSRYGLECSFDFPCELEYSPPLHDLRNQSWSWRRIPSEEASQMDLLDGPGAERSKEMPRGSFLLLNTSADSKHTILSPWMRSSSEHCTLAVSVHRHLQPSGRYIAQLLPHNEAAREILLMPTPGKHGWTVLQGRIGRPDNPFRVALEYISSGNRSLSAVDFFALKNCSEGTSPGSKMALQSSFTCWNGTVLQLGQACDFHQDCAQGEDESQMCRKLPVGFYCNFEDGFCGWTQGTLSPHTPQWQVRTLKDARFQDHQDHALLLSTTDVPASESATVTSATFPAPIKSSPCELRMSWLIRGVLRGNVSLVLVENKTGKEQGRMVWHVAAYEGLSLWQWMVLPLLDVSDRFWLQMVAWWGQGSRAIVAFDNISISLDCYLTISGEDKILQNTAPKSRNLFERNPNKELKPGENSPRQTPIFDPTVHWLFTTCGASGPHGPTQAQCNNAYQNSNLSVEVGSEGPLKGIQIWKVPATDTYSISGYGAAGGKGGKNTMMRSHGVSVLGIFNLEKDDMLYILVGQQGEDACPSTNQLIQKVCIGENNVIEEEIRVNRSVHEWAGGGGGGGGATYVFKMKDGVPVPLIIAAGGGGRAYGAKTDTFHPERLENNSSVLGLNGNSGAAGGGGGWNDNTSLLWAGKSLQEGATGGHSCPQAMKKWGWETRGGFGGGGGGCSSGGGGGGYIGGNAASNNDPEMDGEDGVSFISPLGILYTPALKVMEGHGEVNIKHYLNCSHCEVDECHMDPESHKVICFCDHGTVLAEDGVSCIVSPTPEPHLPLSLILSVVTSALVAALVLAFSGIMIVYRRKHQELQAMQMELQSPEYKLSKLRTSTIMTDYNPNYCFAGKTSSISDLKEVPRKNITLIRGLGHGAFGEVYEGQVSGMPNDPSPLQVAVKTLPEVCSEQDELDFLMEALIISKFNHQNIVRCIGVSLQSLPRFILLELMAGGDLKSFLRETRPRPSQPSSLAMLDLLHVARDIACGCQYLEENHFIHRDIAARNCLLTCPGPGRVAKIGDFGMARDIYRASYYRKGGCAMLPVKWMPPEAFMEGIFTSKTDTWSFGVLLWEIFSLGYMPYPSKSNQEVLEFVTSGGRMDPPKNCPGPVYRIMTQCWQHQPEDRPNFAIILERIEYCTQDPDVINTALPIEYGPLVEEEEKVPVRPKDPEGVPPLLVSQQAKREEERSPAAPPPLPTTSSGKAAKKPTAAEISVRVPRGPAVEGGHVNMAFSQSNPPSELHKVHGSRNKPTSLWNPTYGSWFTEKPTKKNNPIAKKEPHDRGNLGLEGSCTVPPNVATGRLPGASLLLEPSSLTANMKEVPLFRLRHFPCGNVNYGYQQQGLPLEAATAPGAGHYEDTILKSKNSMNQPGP
Sequence of Cytochrome P450 2C9 (P11712 whole entry): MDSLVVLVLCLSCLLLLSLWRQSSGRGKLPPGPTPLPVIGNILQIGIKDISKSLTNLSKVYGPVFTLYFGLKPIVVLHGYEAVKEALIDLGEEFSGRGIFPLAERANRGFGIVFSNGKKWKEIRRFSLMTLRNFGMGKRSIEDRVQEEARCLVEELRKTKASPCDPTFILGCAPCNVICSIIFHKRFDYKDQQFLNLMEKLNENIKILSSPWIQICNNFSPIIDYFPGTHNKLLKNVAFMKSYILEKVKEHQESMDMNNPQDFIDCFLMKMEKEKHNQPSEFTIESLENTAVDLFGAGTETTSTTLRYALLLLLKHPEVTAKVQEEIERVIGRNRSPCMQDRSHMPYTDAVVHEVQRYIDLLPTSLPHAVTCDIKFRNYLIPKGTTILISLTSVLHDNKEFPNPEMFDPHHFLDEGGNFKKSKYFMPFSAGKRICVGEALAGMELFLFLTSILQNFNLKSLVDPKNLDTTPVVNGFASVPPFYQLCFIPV
Sequence of Sphingosine 1-phosphate receptor 2 (O95136 whole entry): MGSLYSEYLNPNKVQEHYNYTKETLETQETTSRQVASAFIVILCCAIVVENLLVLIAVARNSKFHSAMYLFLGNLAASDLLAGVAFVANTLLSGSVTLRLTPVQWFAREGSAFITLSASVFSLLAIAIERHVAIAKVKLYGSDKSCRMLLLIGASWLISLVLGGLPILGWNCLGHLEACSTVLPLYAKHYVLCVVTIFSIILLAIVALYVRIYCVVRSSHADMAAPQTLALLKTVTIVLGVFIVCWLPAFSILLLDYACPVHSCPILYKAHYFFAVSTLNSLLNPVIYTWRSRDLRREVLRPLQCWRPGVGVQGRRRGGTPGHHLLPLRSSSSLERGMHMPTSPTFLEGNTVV

As to `Cc1cc(=O)[nH]nc1-c1ccc(NC(=O)Nc2cccc(Cl)c2)cc1`, the Ki was > 6.31 µM (inactive) in [1]; > 6.31 µM (inactive) in data set [2]; > 15.8 µM (inactive) in data set [3]; 0.631 µM (active) in data set [4]; > 6.31 µM (inactive) in data set [5]; 2.51 µM (active) in data set [6]. The Ki is > 6.31 µM (inactive) in data set [7]; 2 µM (active) in [8]; > 7.94 µM (inactive) in data set [9]; 3.16 µM (active) in [10]; 0.631 µM (active) in data set [11]; 1.58 µM (active) in data set [12].

Regarding `CCOC(=O)C1=c2sc(=Cc3cccs3)c(=O)n2C(N)=C(C#N)C1c1cccs1` (stereo not given), the Ki was 5.01 µM (active) in [13] and 6.31 µM (active) in data set [14].

On to `CCCCSc1nnc(-c2cc3c(C(F)(F)F)nn(C)c3s2)n1C`, for which the concentration at half-maximal activity (AC50) in data set [15] was 20 µM (inconclusive); in [16] it was “inconclusive”. Moreover, the IC50 in [17] was > 99 µM (inactive); in data set [18], 51.6 µM (inactive).

As for `CC1CCCCC1N(C(=O)c1cc(C2CC2)on1)C1CCCCCC1` (stereo not given), the EC50 in data set [19] and in data set [20] was > 50 µM (inactive) in each case.
